Legend:
[1] = tested on: awake Wistar rats; test: Vasodilating action of acetylcholine (blood pressure) in awake rats; assay type: in vivo, rat; settings: endovenous infusion 7.0 pmol/min, n=9, FIG. 14B
Description: Wistar rats were subjected, 24 hours before the experiments, to surgical implantation of catheters into the femoral artery (for analysis of blood pressure and heart rate), femoral vein (for injection and infusion of drugs) and left carotid artery (for injection of drugs). The records of blood pressure and heart rate were obtained through a data acquisition system connected to a microcomputer (BIOPAC System, INc.). […] In none of the groups did we observe any alterations in the baroreflex.

[2] = tested on: CHO cells transfected with the Mas receptor (CHO-Mas); test: Western blot, phosphorylation of kinase B (Akt) in CHO-Mas cells; assay type: cell-based; settings: FIG. 10
Description: (§1) CHO cells transfected with the Mas receptor (CHO-Mas) and human endothelial cells of the thoracic aorta (HAEC) were cultured until confluence of approximately 80% and processed with a lise buffer for Western blotting. After the processing, the protein concentration was determined and the lisates were subjected to electrophoresis in polyacrylamide/SDS gel and then subjected to transfer to the nitrocellulose membrane. The membranes were incubated with specific antibodies (anti-phospho-Akt, anti-Akt, anti-phospho-eNOS and anti-β-actin). The bands were viewed after development by chemoluminescence.

[3] = tested on: human endothelial cells of the thoracic aorta (HAEC); test: Western blot, phosphorylation of kinase B (Akt) in HAEC; assay type: cell-based; settings: FIG. 12
Description: as §1

[4] = tested on: human endothelial cells of the thoracic aorta (HAEC); test: Western blot, phosphorylation of eNOS stimulatory site (S1177) in HAEC; assay type: cell-based; settings: FIG. 13
Description: as §1

[5] = tested on: human aorta endothelial cells (HAEC); test: Western blot, phosphorylation of c-SRC stimulated by Ang II in HAEC; assay type: cell-based; settings: FIG. 15, 4 experiments, b15 words it as inhibiting c-SRC
Description: (§2) In order to quantify the activity of the NAD(P)H Oxtidase, human aorta endothelial cells (HAEC) were stimulated with angiotensin II (10^−7M) for 10 minutes. In some experiments, the cells were pre-exposed to the AT1 receptor antagonist Ibesartan (10^−5M), for 30 minutes or to Ang-(1-7) (10^−7 M) for 15 minutes. The chemoluminescence derived from lucigenin was used to determine the activity of NAD(P)H oxidase in the homogenate of the cells. In order to quantify the modulation of Ang-(1-7) in the phosphorylation of c-SRC, the HAECs were cultured until confluence of about 80% was reached and processed with lise buffer for Western blotting. After the processing, the protein concentration was determined and the lisates were subjected to gel electroforesis of polyacrylamide/SDS and then to the transfer to nitrocellulose membrane. The membranes were incubated with specific antibodies (anti-phospho-c-SRC, anti-c-SRC). The bands were visualized after development by chemoluminescency. […] In some experiments the cells were pre-incubated with Ibesartan (10^−5 M, 30 min). Data are presented with an average±EPM of 4 experiments. *p<0.05 vs control.+p<0.05 vs Ang II+Ang (1-7).

[6] = tested on: CHO cells transfected with the Mas receptor (CHO-Mas); test: Western blot, phosphorylation of eNOS stimulatory site (S1177) in CHO-Mas cells; assay type: cell-based; settings: FIG. 11
Description: as §1

[7] = tested on: NAD(P)H oxidase; test: NAD(P)H oxidase activity in HAEC homogenate, lucigenin chemoluminescence; assay type: cell-based, human; settings: HAEC stimulated by Ang II 10^-7 M 10 min; Ang-(1-7) 10^-7 M 15 min pre-incubation; FIG. 16; direction stated only
Description: as §2

[8] = tested on: C57 mice; test: Testis histology (apoptosis) and gonadosomatic index after 14-day osmotic mini-pump infusion; assay type: in vivo, mouse; settings: 2.5 μg/h s.c. mini-pump, 14 days, n=5, FIG. 17
Description: Osmotic mini-pumps (ALZET, model 2002) containing the Mas G-protein-coupled receptor antagonist, A-779 (2.5 μg/h, 14 days, n=5) or carrier (NaCl 0.9%, 1 μl/h, 14 days, n=6) were implanted subscutaneously into the dorsal region of C57 mice under anesthesia with tribromoethanol (2.5%, 1 ml/100 g of body weight). After this period, the animals were weigh and then injected, by intraperitoneal route, with heparin at the concentration of 125 Ul/kg of body weight. After fifteen minutes, these animals were sedated with sodium thiopental (50 mg/kg of body weight) and perfused through the left ventricle. In a first step, it was carried out the washing of the vascular bed with a 0.9% saline solution, under a pressure of approximately 80 mmHg, for about 5 minutes, at room temperature. Immediately after this procedure, the animals were perfused with a 4% glutaraldehyde fixing solution in a phosphate buffer (0.05M, pH 7.2-7-4) for about 25 minutes. After this step, the testicles were removed and separated from the respective epididymis and weighed. From the testicular and body weights, one estimated the gonadosomatic index (percentage relation between the testicular weight and the body weight) for each animal. For the microscopic analyses, fragments of the testis up to about 3 mm thick were collected, which were dipped into glutaraldehyde buffered at 4% for two to four hours, at 4° C. […]

Row | Substance | effect on the vasodilating action of acetylcholine (ACh) [1] | phosphorylation of kinase B (Akt) [2] | phosphorylation of kinase B (Akt) [3] | phosphorylation of the stimulatory site of eNOS (S1177) [4] | effect on phosphorylation of c-SRC stimulated by Ang II [5] | phosphorylation of the stimulatory site of endothelial nitric oxide synthase (S1177) [6] | activity of NAD(P)H oxidase [7] | effect on Ang-(1-7)-stimulated phosphorylation of kinase B (Akt) [2] | effect on Ang-(1-7)-stimulated phosphorylation of kinase B (Akt) [3] | gonadosomatic index (testicular weight / body weight, percentage) versus control group [8] | number of apoptosis per transverse section of testis versus control group [8]
1 | Angiotensin-(1-7) [Ang-(1-7)] | potentiates the vasodilating action of acetylcholine | stimulation | stimulatory effect | stimulated | modulating effect | stimulated | inhibits the activity of NAD(P)H oxidase |  |  |  | 
2 | Asp^1-Arg^2-Val^3-Tir^4-Lle^5-His^6-D-Ala^7 [A-779, reference compound] |  |  |  |  |  |  |  | blocked this effect | blocked this effect | there was not different | larger number of apoptosis per transverse section

Source: patent US20080312129A1, “Use of Mas G-Protein-Coupled Receptor Agonists and Antagonists, as Apoptotic-Activity Modulators for Study, Prevention and Treatment of Diseases” (priority 2005, published 2008)
